Measured values from patent publication US20150224061A1, “NANOCONSTRUCTS WITH PHARMACOLOGICAL ACTIVITY” (UNIVERSITA' DEGLI STUDI DI MILANO - BICOCCA, priority 2012, published 2015).
Like-named read-outs stand apart in the source and are kept apart here. Where no end group is shown, it is not given here.

Key:
neurons = details: i.v., 1 hour, magnet applied to the skull
Description: Then, a staining of the neurons was carried out with the fluorescent probe NeuroTrace (which stains the substance Nissi, which is abundant in neuronal cells and is formed from ribosomal RNA associated with the endoplasmic reticulum).

[1] = system: transduction signal pathway of NFAT; assay: IL-2 production (ELISA) by LPS-stimulated DCs derived from bone marrow, marker of NFAT pathway; type: cell-based, mouse; details: 18 hours; for inhibition of NFAT activity (IL-2 release, ELISA): peptide 25 uM pretreatment, LPS 100 ng/ml
Description: (§1) FIG. 2. Inhibition of the transduction of the NFAT signals by means of the MYTS-VIVIT nanoconstructs in DCs derived from bone marrow. The DCs were pre-treated, or not, with the indicated quantities of MYTS-VIVIT for two hours and then activated with LPS for 18 hours. The quantities of IL-2 and TNFα in the supernatant were measured using the ELISA method.
(§2) In order to assess whether nanoconstructs are able to inhibit the transduction signal pathway of NFAT, the following experiments were carried out in vitro. After exposure to LPS, the DCs derived from bone marrow were able to produce various inflammatory cytokines, including IL-2 and TNFα. IL-2 was strictly NFAT-dependent, whereas the production of TNFα was NF-kB-dependent and NFAT-independent. IL-2 and TNFα are therefore valid markers respectively of the activation pathway of NFAT and NF-kB. After two hours of pretreatment with the nanoconstructs obtained as described in example 1, the DCs derived from bone marrow were stimulated with LPS and the quantity of released cytokines was measured using the ELISA method 18 hours later.
(§3) DCs produce IL-2 in an NFAT-dependent manner if stimulated with LPS. To assess the efficacy of the VIVIT peptide, DCs derived from bone marrow were transduced with a sequence coding the VIVIT peptide fused with the GFP protein through use of a retroviral vector.
Since DCs are phagocyte cells, we firstly used the non-modified peptide, assuming that this could reach the cell cytosol once entered into the endosomal compartment. We then carried out co-cultures of DCs with the VIVIT peptide, and the inhibition of NFAT was analyzed by measuring the production of IL-2 following stimulation with LPS. […] A modified VIVIT peptide was then assessed, to which a […] 11-arginine tail had been attached. It has, in fact, been described in the literature that this modification can allow entry into the cells.

[2] = system: skin transplant rejection; assay: Skin transplant rejection model (male skin into female mice); type: in vivo, mouse
Description: FIG. 6. Inhibition of skin transplant rejection. Male skin was grafted in female mice. The mice were then injected endovenously, or not, with the nanoconstructs (MYTS-VIVIT or MYTS-VEET) on days −1, 0, +1, +3, +6, +9, +12, and +15. In addition, the mice were then left without treatment for a further 20 days. The boxes M in M represent the untreated controls and show the skin transplant from male mouse to male mouse. […] The boxes M in F represent the skin transplant from male mouse to female mouse without treatment with the nanoconstructs. The scar of the rejection is clearly visible on day 30. The rejection can also be seen in boxes M in F (male into female) treated with the control MYTS-VEET nanoconstructs. Vice versa, in the boxes representing the transplant from male to female with MYTS-VIVIT treatment (M in F+MYTS-VIVIT), the acceptance of the graft is clearly visible. The bar chart beneath represents a quantification of the results of the experiment. To summarize, the transplant was accepted in 80% of cases treated with the MYTS-VIVIT nanoconstructs, whereas it was rejected in 100% of untreated cases and in 80% of cases treated with the control MYTS-VEET nanoconstruct.
To verify whether the nanoconstructs of the present invention are able to inhibit transplant rejection, a skin transplant model was used. […]

[3] = system: transduction signal pathway of NFAT; assay: GFP+ Ly6G+ spleen neutrophils in IL-2/GFP mutant mice after LPS; type: in vivo, mouse; details: i.v. two hours before LPS injection
Description: FIG. 3. The NFAT pathway is active in the neutrophils. Mice genetically modified by IL-2/GFP were treated, or not, with MYTS-VIVIT and were then injected intravenously two hours after with LPS. The bars represent the percentage of GFP+Ly6G^+ spleen neutrophils […] after the treatment with LPS. In this mouse model, GFP was inserted in the second exon of IL-2 and therefore has the same regulation of IL-2.
Mutant mice (obtained from laboratories of Ronald H. Schwartz, NIH Bethesda) were used for this experiment. In this mouse model, the GFP protein was inserted into the second exon of the gene IL-2, and therefore had the same regulation of IL-2. As mentioned before, IL-2 is a marker of NFAT activation. If the mice genetically modified with regard to IL-2/GFP are treated with LPS, a significant percentage of GFP+ neutrophils (Ly6G+ cells) can be measured in the spleen two hours after treatment. To verify whether the nanoconstructs of the present invention are able to inhibit the signal pathway of NFAT in vivo, mutant mice were injected endovenously with the nanoconstructs as prepared in example 1 two hours before the injection of LPS.

NF-kB = assay: TNFα production (ELISA) by LPS-stimulated DCs derived from bone marrow, marker of NF-kB pathway; type: cell-based, mouse; details: 2 h pretreatment, then LPS, 18 hours
Description: as §1, §2, §3

[4] = system: NFAT-dependent edema induced by LPS; assay: LPS-induced paw edema model; type: in vivo, mouse; details: subcutaneous pretreatment 2 hours prior to LPS in the paw
Description: FIG. 4. Inhibition of the NFAT pathway in the formation of edema of the paw in response to LPS. The animals were pretreated, or not, with the nanoconstructs (MYTS-VIVIT) or FK-506 (approximately 2 h) and were then treated locally with LPS.
To assess whether the nanoparticles of the present invention are able to inhibit in vivo the formation of LPS-induced edema, the mice were pretreated, or not, with the nanoconstructs of example 1 or FK506 as control sub-cutaneously for 2 hours prior to the injection of LPS in the paw.

inflammatory arthritis = assay: Arthritis induced by anti-collagen antibodies/LPS; type: in vivo, C57BL6 mice; details: treated on days −1, 0, +1, +3, +6, +9, +12
Description: FIG. 5. Inhibition of the development of arthritis. FIG. 5A: the mice were treated endovenously, or were not treated, at −1, 0, +1, +3, +6, +9, and +12 days with the nanoconstructs (MYTS-VIVIT) or with nanoconjugates MYTS-VEET (a peptide similar to VIVIT in which the sequence has been modified, thus losing specificity for Cn). Day 0 represents the start of the procedure of inducing arthritis. The clinical points indicative of the severity of the arthritis were assessed on the days indicated. In FIG. 5B, photographs showing arthritis on the seventh day in a treated mouse and in an untreated mouse are shown.
Rheumatoid arthritis (AR) is a chronic, debilitating systemic autoimmune disease characterized by an immunological inflammatory reaction of the mesenchymal tissue and of the synovial fluid accompanied by polyarticular synovitis. Over time, it leads to the progressive destruction of the articular and periarticular structures. […] To verify whether the nanoconstructs of the present invention are able to inhibit the development of inflammatory arthritis, a model of arthritis induced by anti-collagen antibody of the IL/LPS type was used. In particular, six C57BL6 mice were treated on days −1, 0, +1, +3, +6, +9, +12 with the nanoconstructs of example 1.

NFAT = details: cited from earlier work
[5] = system: NF-kB transcription factor; details: cited from earlier work
calcineurin (Cn) = details: cited from earlier work

enfuvirtide
accumulation of AF660-labeled drug in neurons (confocal microscopy) (neurons; listed as free enfuvirtide): only in the case of the drug conjugated to the MYTS nanoparticles
accumulation of AF660-labeled drug in neurons (confocal microscopy) (neurons; listed as labeled drug not conjugated to the nanoparticles): traces of fluorescence cannot be seen

peptide with an 11-arginine tail: peptide with sequence SEQ ID NO:1 conjugated with an 11-arginine tail (CGGGKMAGPVIVITGPHEE; also: 11-arginine tail conjugated, end not given here; listed as Homo sapiens)
inhibition of NFAT activity (IL-2 release, ELISA) [1]: unable to penetrate into the cytosol of the DCs and to block the activity of NFATs
inhibition of NFAT activity (IL-2 release, ELISA) ([1]; listed as modified VIVIT peptide): not possible to observe any inhibition of the NFAT pathway

MYTS-VIVIT (H-CGGGKMAGPVIVITGPHEE-OH; not fully specified; printed as NH2—CGGGKMAGPVIVITGPHEE-COOH)
IL-2 released (ELISA) ([1]; 2 h pretreatment, then LPS): completely block IL-2
skin transplants accepted ([2]; i.v. treatment from day −1, after four weeks / day 30): 80%
skin transplants accepted ([2]; i.v. treatment from day −1, after four weeks / day 30, listed as nanoconstructs bearing the VIVIT peptide): 90%
percentage of GFP+ Ly6G+ spleen neutrophils [3]: strong impact on the ability of the neutrophils to produce GFP
TNFα released (ELISA) (NF-kB): not the production of TNFα
formation of LPS-induced paw edema [4]: significantly inhibited
development of arthritis (clinical points) (inflammatory arthritis): inhibit the development of arthritis very effectively

NH2—CGGGKMAGPVIVITGPHEE-COOH (H-CGGGKMAGPVIVITGPHEE-OH; listed as Homo sapiens)
inhibition of NFAT activity (IL-2 release, ELISA) [1]: unable to penetrate into the cytosol of the DCs and to block the activity of NFATs
inhibition of NFAT activity (IL-2 release, ELISA) ([1]; listed as free, non-modified VIVIT peptide): did not make it possible to interfere with the activity of NFAT

Val-Ile-Val-Ile-Thr [VIVIT]
inhibition of NFAT (gene reporter) (NFAT): effectively inhibits NFAT and its activity
inhibition of NF-kB (gene reporter) [5]: not the activity of the NF-kB transcription factor
affinity for Cn (calcineurin (Cn)): increased affinity for Cn
